Measurements from patent US10906900B2, “Compounds for using in imaging and particularly for the diagnosis of neurodegenerative diseases” (CENTRE NATIONAL DE LA RECHERCHE SCIENTIFIQUE, priority 2016, dated 2021).
Like-named read-outs stand apart in the source and are kept apart here.

Tests used:
[1] = target: Aβ1-42 fibres (Homo sapiens, UniProt P05067); assay: In vitro inhibition of ThT binding and determination of Ki (fluorescence), Aβ1-42 fibres; conditions: vs Thioflavin T 500 nM; Aβ1-42 fibres 500 nM; PBS pH7.4, 1 h RT; read-out: Ki Aβ
Aβ1-42 fibres, sequence (P05067 672-713 limits assumed): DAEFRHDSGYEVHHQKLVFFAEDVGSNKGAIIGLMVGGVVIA
Protocol: (§1) To obtain fiber assembly, α-syn is incubated in Tris-HCl 50 mM pH7.5, KCl 150 mM at 37° C. under continuous agitation during 4 days. The lyophilized Aβ1-42 was dissolved in 1,1,1,3,3,3-Hexafluoro-2-propanol (HFIP) at 0.2 mg/mL and incubated for 24 h at 37° C. to obtain the complete solubilization. The HFIP is evaporated under nitrogen stream to obtain a dry product. To start the fiber assembly, the dry peptide is resuspended in PBS pH7.4, 10% (v/v) DMSO and incubated at 37° C. for 3 days without agitation.
(§2) Protein fibers are systematically observed by electron microscopy (Jeol 1400). The images are recorded with a CCD camera (Gatan Orius). Finally, the percentage of α-syn and Aβ1-42 aggregated into fibers is checked on the pellet after centrifugation at 40000×g for 20 min and determination of the concentration of soluble protein/peptide remaining in the supernatant.
(§3) The samples are incubated for 1 h at room temperature (RT) to reach equilibrium. […] From each curve, the IC50 value is measured using the following equation: Y=min+(max−min)/1+([…])^slope

[2] = target: α-syn fibres (Homo sapiens (Human), UniProt P37840); assay: In vitro inhibition of ThT binding and determination of Ki (fluorescence), α-syn fibres; conditions: for Ki: vs Thioflavin T 500 nM, α-syn fibres 200 nM, PBS pH7.4, 1 h RT, read-out: Ki αsyn; for α-syn selectivity according to analysis of Ki (Table 5): selective = good affinity and at least two times greater than for at least one of the two other proteins
Protocol: as §1, §2, §3

[3] = target: Tau fibres (Homo sapiens (Human), UniProt P10636); assay: In vitro inhibition of ThT binding and determination of Ki (fluorescence), Tau fibres; conditions: for Tau selectivity according to analysis of Ki (Table 5): selective = good affinity and at least two times greater than for at least one of the two other proteins
Tau fibres, sequence (P10636 other isoform, or with tags, fused parts or gaps): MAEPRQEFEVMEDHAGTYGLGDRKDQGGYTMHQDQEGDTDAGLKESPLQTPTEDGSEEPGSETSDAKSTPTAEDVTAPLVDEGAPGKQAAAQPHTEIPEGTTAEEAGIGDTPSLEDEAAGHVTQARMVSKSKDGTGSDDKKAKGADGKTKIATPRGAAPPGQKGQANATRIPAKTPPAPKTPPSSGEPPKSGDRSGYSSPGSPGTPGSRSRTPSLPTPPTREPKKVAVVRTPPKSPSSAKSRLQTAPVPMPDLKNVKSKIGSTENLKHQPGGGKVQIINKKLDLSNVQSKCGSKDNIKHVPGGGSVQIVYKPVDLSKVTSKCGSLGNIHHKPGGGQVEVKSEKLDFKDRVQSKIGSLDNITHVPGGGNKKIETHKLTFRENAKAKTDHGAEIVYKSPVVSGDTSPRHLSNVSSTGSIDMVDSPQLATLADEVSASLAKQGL
Protocol: (§4) Tau protein in PBS buffer containing 1 mM DTT is assembled into fiber in the presence of one twelfth of a molar equivalent of heparin at 37° C. under stirring.
as §3

[4] = target: Aβ1-42 fibers (Homo sapiens, UniProt P05067); assay: In vitro direct determination of Kd and Bmax by fluorescence, Aβ1-42 fibers; assay type: binding; conditions: for Aβ Bmax1: density of binding sites; for Aβ Bmax1 / Kd: direct fluorescence, Scatchard analysis; for Kd: Aβ1-42 fibers 500 nM, read-out: Aβ Kd1; for Aβ Bmax1 (number of sites/monomer): in brackets in the Bmax cell
Aβ1-42 fibers, sequence (P05067 672-713 limits assumed): as the sequence (P05067 672-713 limits assumed) above
Protocol: as §1
(§5) Fresh solutions of each test compound (2.5 mM in DMSO) are diluted in PBS pH=7.4 at concentrations between 0.5 nM and 5 μM in the presence or absence of α-syn (200 nM), Aβ1-42 (500 nM) or Tau (200 nM) fibers in a final 2 mL volume. After 1 h of incubation at RT, the binding of each compound to α-syn, A131-42 or Tau fibers is measured by fluorescence using the spectral changes of the compounds during their binding to the fibers, using the appropriate excitation/emission wavelengths (those giving the highest fluorescence variation during binding to the fibres). For each concentration of compound added to the fibres, the bound and free fractions are measured by fluorescence according to the following equation: Fm=FBB+FF×(T−B)
(§6) The value of FF is determined by measuring the fluorescence of known concentrations of compounds in the absence of fibres. The FB value is determined by measuring the maximum fluorescence of known concentrations of compounds in the presence of saturated concentrations of α-syn, Aβ1-42, or Tau fibers.
(§7) The values of B thus determined versus the concentrations of the free fractions (T-B) are analyzed according to the Michaelis-Menten equation. The affinity (Kd) and density of binding sites within the fibers of α-syn, Aβ1-42 or Tau (Bmax) are determined by Scatchard analysis, which also makes it possible to highlight multiple site classes.

[5] = target: α-syn fibers (Homo sapiens (Human), UniProt P37840); assay: In vitro direct determination of Kd and Bmax by fluorescence, α-syn fibers; assay type: binding; conditions: for αsyn Bmax1: density of binding sites; for αsyn Bmax1 / Kd: direct fluorescence, Scatchard analysis; for Kd: α-syn fibers 200 nM, read-out: αsyn Kd1; for αsyn Bmax1 (number of sites/monomer): in brackets in the Bmax cell; for α-syn selectivity according to analysis of Kd (Tables 6 and 7): selective = good affinity and at least two times greater than for at least one of the two other proteins
Protocol: as §1, §5, §6, §7

[6] = target: Tau fibers (Homo sapiens (Human), UniProt P10636); assay: In vitro direct determination of Kd and Bmax by fluorescence, Tau fibers; assay type: binding; conditions: for Tau Bmax1: density of binding sites; for Tau Bmax1 / Kd: direct fluorescence, Scatchard analysis; for Kd: Tau fibers 200 nM, read-out: Tau Kd1; for Tau Bmax1 (number of sites/monomer): in brackets in the Bmax cell; for Tau selectivity according to analysis of Kd (Tables 6 and 7): selective = good affinity and at least two times greater than for at least one of the two other proteins
Tau fibers, sequence (P10636 other isoform, or with tags, fused parts or gaps): as the sequence (P10636 other isoform, or with tags, fused parts or gaps) above
Protocol: Human Tau protein (isoform h2N4RTau) is expressed in the vector pET11d in E. Coli (strain BL21 (DE3), (Stratagene, La Jolla, Calif.)) and purified according to the described method (Barghorn S, Biernat J, Mandelkow E. (2005) Methods Mol Biol. 299:35-51). The Tau purified concentration is determined by measuring the absorbance at 280 nm using a molar extinction coefficient of 7450 M^−1 cm^−1.
as §4, §5
Where Fm is the fluorescence measured in the presence of fibers at a concentration T of the compound added to the fibers, FB is the specific fluorescence of the bound compound, FF is the specific fluorescence of the free compound, and B is the concentration of the fiber bound compound at a given concentration T (Bell, J. E., “Fluorescence; Solution Studies”, Spectrometry in Biochemistry, vol. I, Bell, J. E., ed., CRC Press, Inc., Boca Raton, Fla., pp. 155-194 (1981)).
as §6
Thus, at each point, the concentration of bound compound B is determined according to the following equation: B=(Fm−FF×T)/(FB−FF)
as §7

[7] = vs Thioflavin T 500 nM, Tau fibres 200 nM, PBS pH7.4, 1 h RT

SMILES	Ki [1] [nM]	Ki [2] [nM]	Ki [3, 7] [nM]	Aβ Bmax1 [4] [nmol/μmol prot]	Kd [4] [nM]	Aβ Bmax1 (number of sites/monomer) [4]	αsyn Bmax1 [5] [nmol/μmol prot]	Kd [5] [nM]	αsyn Bmax1 (number of sites/monomer) [5]	Tau Bmax1 [6] [nmol/μmol prot]	Kd [6] [nM]	Tau Bmax1 (number of sites/monomer) [6]	α-syn selectivity according to analysis of Ki (Table 5) [2]	Ki [3] [nM]	Tau selectivity according to analysis of Ki (Table 5) [3]	α-syn selectivity according to analysis of Kd (Tables 6 and 7) [5]	Tau selectivity according to analysis of Kd (Tables 6 and 7) [6]
CNc1ccc(/C=C/c2ccc(OCCOCCOCCF)nc2)cc1 [AV45, reference compound]	2.2 ± 1	76.6 ± 44	30.6 ± 9	3.33 ± 0.2	1.68 ± 0.2	1/300	27.9 ± 19	24.3 ± 20	1/35	92.0 ± 20	19.6 ± 5	1/11					
CN(C)c1ccc(C#Cc2cc3cccnc3[nH]2)cc1 [Compound 22a, 4-((1H-Pyrrolo[2,3-b]pyridin-2-yl)ethynyl)-N,N-dimethylaniline]	24.5 ± 9	4.7 ± 2		3.04 ± 0.6	11.8 ± 3	1/300	69.5 ± 20	0.53 ± 0.2	1/14	93.0 ± 15	0.44 ± 0.1	1/10	selective	4.61 ± 0.2	selective	selective	selective
CN(C)c1ccc(C#Cc2cc3ccncc3[nH]2)cc1 [Compound 22b, 4-((1H-Pyrrolo[2,3-c]pyridin-2-yl)ethynyl)-N,N-dimethylaniline]	91.5 ± 11	28.7 ± 8		2.3 ± 0.8	5.2 ± 3	1/400	80.0 ± 42	1.4 ± 1	1/15	37.1 ± 10	0.49 ± 0.2	1/30	selective	8.4 ± 2	selective	selective	selective
CN(C)c1ccc(C#Cc2cc3ncccc3[nH]2)cc1 [Compound 22c, 4-((1H-Pyrrolo[3,2-b]pyridin-2-yl)ethynyl)-N,N-dimethylaniline]	21.3 ± 7	26 ± 16		1.44 ± 0.6	2.9 ± 2	1/700	82.5 ± 5	3.25 ± 0.2	1/12	26.5 ± 5	0.13 ± 0.05	1/40		12 ± 1	selective		selective
CN(C)c1ccc(C#Cc2cc3cnccc3[nH]2)cc1 [Compound 22d, 4-((1H-Pyrrolo[3,2-c]pyridin-2-yl)ethynyl)-N,N-dimethylaniline]				2.4 ± 0.8	3.6 ± 2	1/400	6.0 ± 1	1 ± 0.5	1/170	12.5 ± 5	2.4 ± 0.9	1/80				selective	
CN(C)c1ccc(C#Cc2cc3ccc(Cl)nc3[nH]2)cc1 [Compound 22e, 4-((6-Chloro-1H-pyrrolo[2,3-b]pyridin-2-yl)ethynyl)-N,N-dimethylaniline]	909 ± 143	49.9 ± 12											selective	25.1 ± 8	selective		
CN(C)c1ccc(C#Cc2cc3ccc(F)nc3[nH]2)cc1 [Compound 22f, 4-((6-Fluoro-1H-pyrrolo[2,3-b]pyridin-2-yl)ethynyl)-N,N-dimethylaniline]	349 ± 256			21.6 ± 3	16.8 ± 2	1/50											
CN(C)c1ccc(C#Cc2cc3cc(F)cnc3[nH]2)cc1 [Compound 22g, 4-((5-Fluoro-1H-pyrrolo[2,3-b]pyridin-2-yl)ethynyl)-N,N-dimethylaniline]	318 ± 95																
CN(C)c1ccc(C#Cc2cc3c(F)ccnc3[nH]2)cc1 [Compound 22h, 4-((4-Fluoro-1H-pyrrolo[2,3-b]pyridin-2-yl)ethynyl)-N,N-dimethylaniline]	244 ± 84																
CN(C)c1ccc(C#Cc2cc3ccc(-c4cccs4)nc3[nH]2)cc1 [Compound 25a, N,N-Dimethyl-4-((6-(thiophen-2-yl)-1H-pyrrol[2,3-b]pyridin-2-yl)ethynyl)aniline]				5.8 ± 0.32	4.9 ± 0.6	1/170	53.5 ± 10	0.49 ± 0.2	1/20	70.4 ± 4	1.67 ± 0.5	1/10				selective	
CN(C)c1ccc(C#Cc2cc3ccc(-c4ccsc4)nc3[nH]2)cc1 [Compound 25b, N,N-Dimethyl-4-((6-(thiophen-3-yl)-1H-pyrrol[2,3-b]pyridin-2-yl)ethynyl)aniline]				11.0 ± 1	4.27 ± 0.6	1/90											
CN(C)c1ccc(C#Cc2cc3ccc(-c4ccc(F)nc4)nc3[nH]2)cc1 [Compound 25c, 4-((6-(6-Fluoropyridin-3-yl)-1H-pyrrolo[2,3-b]pyridin-2-yl)ethynyl)-N,N-dimethylaniline]				11.0 ± 2	3.1 ± 1	1/90											
CC(=C(C#N)C#N)c1ccc2cc(N(C)CCF)ccc2c1 [FDDNP, reference compound]	4.6 ± 3	25.1 ± 5	9.5 ± 1	10.2 ± 1	4.2 ± 1	1/100	39.5 ± 10	16.1 ± 6	1/25	138.5 ± 16	34.9 ± 6	1/7					
